This note sets out measurements from ChEMBL document CHEMBL5614441, “Anticancer potential of active alkaloids and synthetic analogs derived from marine invertebrates” (Eur J Med Chem, 2024).

The test system of test [1] is MCF7. The test is described as follows: Cytotoxicity against human MCF7 cells assessed as cell viability measured after 48 hrs by MTT cell proliferation assay. The format is functional, cell-based. The conditions noted are these: MCF7, 48 h.
Test [2] has as its system CWR22R. Kind of test: Cytotoxicity against human 22Rv1 cells assessed as cell viability measured after 48 hrs incubation by MTT assay. The format is functional, cell-based. The settings on record: 22Rv1, 48 h.
The test system of test [3] is MDA-MB-231. Kind of test: Cytotoxicity against human MDA-MB-231 cells assessed as cell growth inhibition incubated for 72 hrs by alamarblue staining based assay. The conditions noted are these: MDA-MB-231, 72 h. Type of test: functional.
For test [4], the system named is MCF7. The test is described as follows: Cytotoxicity against human MCF7 cells assessed as cell killing by SRB colorimetric assay. Type of test: functional, cell-based.
In test [5] the test system is CWR22R. The test is described as follows: Cytotoxicity against human 22Rv1 cells assessed as cell viability measured after 24 hrs incubation followed by incubated 3 hrs with MTS reagent by MTS assay. Type of test: functional, cell-based.
In test [6] the test system is PC-3. The test is described as follows: Cytotoxicity against human PC-3 cells assessed as cell viability measured after 24 hrs incubation followed by incubated 3 hrs with MTS reagent by MTS assay. Type of test: functional, cell-based.
In another test the test system is A549. The test is described as follows: Cytotoxicity against human A549 cells assessed as cell viability measured after 24 hrs incubation by MTT assay. The format is functional, cell-based. The settings on record: A549, 24 h.
The test system of another test is DU-145. Kind of test: Antiproliferative activity against human DU-145 cells assessed as inhibition of cell proliferation measured after 2 to 4 hrs incubation by MTT assay. The format is functional, cell-based.
Test [7] deals with PC-3. The test is described as follows: Antiproliferative activity against human PC-3 cells assessed as inhibition of cell proliferation measured after 2 to 4 hrs incubation by MTT assay. The format is functional, cell-based.
In test [8] the test system is MDA-MB-231. The test is described as follows: Cytotoxicity against human MDA-MB-231 cells measured after 24 to 72 hrs by MTT cell proliferation assay. The format is functional, cell-based.
The subject of test [9] is MDA-MB-231. Kind of test: Cytotoxicity against human MDA-MB-231 cells assessed as cell viability measured after 48 hrs by MTT assay. The settings on record: MDA-MB-231, 48 h. The format is functional, cell-based.
Another test has as its system SW480. The test is described as follows: Cytotoxicity against human SW480 cells assessed as cell growth measured after 24 hrs incubation by Sulforhodamine B (SRB) assay. Type of test: functional, cell-based. The settings on record: SW480, 24 h.
Another test has as its system SW-620. Kind of test: Cytotoxicity against human SW620 cells assessed as cell growth measured after 24 hrs incubation by Sulforhodamine B (SRB) assay. The format is functional, cell-based. The conditions noted are these: SW-620, 24 h.
In another test the test system is HCT-116. The test is described as follows: Antiproliferative activity against human HCT116 cells assessed as inhibition of cell proliferation measured after 2 to 4 hrs incubation by MTT assay. The format is functional, cell-based.
Test [10] is described as follows: Cytotoxicity against p53-/- transgenic mouse derived T11 cells assessed as cell viability measured after 48 hrs by Cell Titer Glo assay. Type of test: functional, cell-based. The settings on record: T11, 48 h.
For test [11], the target named is Hepatocyte growth factor receptor (Homo sapiens, UniProt P08581). The test is described as follows: Inhibition of c-Met phosphorylation in human BT-474 cells using Z-LYTE Tyr6 peptide substrate measured after 1 hr incubation by Z-LYTE c-Met Kinase assay. The format is cell-based.
The next test deals with BT-474. The test is described as follows: Anticancer activity against human BT-474 cells assessed as cell viability measured after 48 hrs by MTT assay. The format is functional, cell-based. The conditions noted are these: BT-474, 48 h.
The test system of the next test is NCI-H460. Kind of test: Cytotoxicity against human NCI-H460 cells. Type of test: functional, cell-based.
A further test concerns NCI-H292. Kind of test: Cytotoxicity against human NCI-H292 cells. Type of test: functional, cell-based.

Sequence of Hepatocyte growth factor receptor (P08581 whole entry): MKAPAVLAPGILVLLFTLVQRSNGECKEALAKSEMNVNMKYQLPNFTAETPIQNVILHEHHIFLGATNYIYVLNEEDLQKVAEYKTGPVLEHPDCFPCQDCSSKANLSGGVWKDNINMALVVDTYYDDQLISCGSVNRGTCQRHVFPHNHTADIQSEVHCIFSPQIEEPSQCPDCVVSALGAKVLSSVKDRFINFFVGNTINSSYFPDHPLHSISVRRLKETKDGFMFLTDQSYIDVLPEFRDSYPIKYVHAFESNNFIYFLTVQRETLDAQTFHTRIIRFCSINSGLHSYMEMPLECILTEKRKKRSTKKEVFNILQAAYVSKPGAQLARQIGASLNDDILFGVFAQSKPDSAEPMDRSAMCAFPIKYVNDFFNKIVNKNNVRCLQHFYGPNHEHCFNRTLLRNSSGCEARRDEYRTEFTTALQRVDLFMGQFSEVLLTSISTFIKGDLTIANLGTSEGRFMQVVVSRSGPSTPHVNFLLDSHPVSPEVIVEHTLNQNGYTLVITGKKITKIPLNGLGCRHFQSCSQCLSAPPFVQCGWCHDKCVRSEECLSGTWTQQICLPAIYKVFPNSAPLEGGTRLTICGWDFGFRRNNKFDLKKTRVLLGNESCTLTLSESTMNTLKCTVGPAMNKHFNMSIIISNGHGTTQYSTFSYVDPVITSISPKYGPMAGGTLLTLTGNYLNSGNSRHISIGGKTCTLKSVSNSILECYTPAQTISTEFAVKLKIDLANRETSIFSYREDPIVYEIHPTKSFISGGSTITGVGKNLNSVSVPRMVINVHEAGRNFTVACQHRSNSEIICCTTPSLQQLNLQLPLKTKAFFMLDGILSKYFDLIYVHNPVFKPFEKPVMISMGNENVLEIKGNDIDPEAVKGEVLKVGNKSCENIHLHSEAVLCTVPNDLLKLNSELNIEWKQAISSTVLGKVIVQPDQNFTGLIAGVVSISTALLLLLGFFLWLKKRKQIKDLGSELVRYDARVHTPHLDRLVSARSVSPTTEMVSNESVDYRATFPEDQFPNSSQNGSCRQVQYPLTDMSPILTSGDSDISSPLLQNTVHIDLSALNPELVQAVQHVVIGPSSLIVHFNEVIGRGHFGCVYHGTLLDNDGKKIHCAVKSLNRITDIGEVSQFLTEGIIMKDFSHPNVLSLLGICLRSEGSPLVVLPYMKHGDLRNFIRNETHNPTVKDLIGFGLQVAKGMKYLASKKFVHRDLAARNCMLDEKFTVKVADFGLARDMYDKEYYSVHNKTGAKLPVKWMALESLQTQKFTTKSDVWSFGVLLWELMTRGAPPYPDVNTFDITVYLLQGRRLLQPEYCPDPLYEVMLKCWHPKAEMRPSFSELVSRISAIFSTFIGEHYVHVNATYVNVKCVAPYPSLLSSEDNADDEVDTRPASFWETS

Consider `Cn1c2ccccc2c2cc(C3=NCCc4c3[nH]c3ccccc43)ccc21`, for which, in the test on MCF7 [1], the IC50 amounted to 5.48 µM.

Turning to `CCC/C=C\CC[C@@H](O)C[C@H]1CCC2=C(C(=O)OCCCCN(O)C(=N)N)[C@H](CC/C=C\CCC)NC(N)=[N+]21`, the IC50 in the test with CWR22R [2] turned out to be 5 µM.

Consider `N=C(N)NCCCCNC(=O)[C@@]1(O)[C@H](Cc2c[nH]c3cc(Br)ccc23)[C@@](O)(Cc2c[nH]c3cc(Br)ccc23)C(=O)N1CCCCNC(=N)N` [EUSYNSTYELAMIDE B], for which the IC50 with MDA-MB-231 [3] was found to be 5 µM.

Take `CCC/C=C\CC[C@@H](O)C[C@H]1CCC2=C(C(=O)OCCCCN(O)C(=N)N)[C@H](CC/C=C\CCC)NC(=N)N21`: the IC50 in the test on CWR22R [2] amounted to 5 µM.

For `O=C(Cc1c[nH]c2ccccc12)N/N=C1\C(=O)Nc2ccc([N+](=O)[O-])cc21`, the IC50 with MCF7 [4] turned out to be 0.44 µM.

Consider `O=C1c2ccc(Br)cc2-[n+]2ccc3c([nH]c4cc(Br)ccc43)c21`, for which the IC50 was found to be 0.69 µM in the test with CWR22R [5] and 7.28 µM in the test with PC-3 [6].

For the molecule `CN1C(=O)/C(=N\NC(=O)Cc2c[nH]c3ccccc23)c2ccccc21`, the half-inhibitory concentration (IC50) with MCF7 [4] came to 1.28 µM.

Consider `C/C=C(/C)C(=O)OC[C@H]1c2c(c(O)c(C)c3c2OCO3)C[C@H]2[C@H]3C4=C(C[C@@H]([C@H](C#N)N12)N3C)C(=O)C(C)=C(OC)C4=O`, for which the IC50 in the test with A549 is 25 µM.

`COC1=C(Br)[C@H](O)[C@](O)(CC#N)C=C1Br`: the IC50 came out at 0.54 µM with DU-145 and 0.12 µM with PC-3 [7].

For the molecule `COc1cc2ccnc3c2c(c1O)N(C)C=C3` [ISOAAPTAMINE], 30.1 µM corresponded to half-maximal inhibition in the test with MDA-MB-231 [8] (IC50).

Consider `O=C1c2cccc(Cl)c2-[n+]2ccc3c([nH]c4ccccc43)c21`, for which the IC50 in the test with MDA-MB-231 [9] amounted to 0.3 µM.

With `Cn1ccc2c(c1=O)C(=O)c1nccc3c1c-2nc1ccccc13` [NEOAMPHIMIDINE], the IC50 with SW480 came to 0.006 µM; in the test with SW-620, 0.06 µM.

Take `CC[C@@H]1C=CCC[C@]2(C[C@H]3CC[C@@]4(O)[C@@H](C(=O)OCCCCCCCCCCCCCCCC(=O)N(CCCN)C[C@@H](O)CCN)[C@@]5(CCC[C@H](C)O5)N=C(N2)N34)O1`: in the test on HCT-116, the IC50 came to 4.7 µM.

For the molecule `CC[C@H]1C=CCC[C@@]2(C[C@@H]3CC[C@@H]4[C@H](C(=O)OCCCCCCCCCCCCCCCC(=O)N(CCCN)C[C@@H](O)CCN)[C@]5(CCC[C@@H](C)O5)NC(=N2)N34)O1`, the IC50 in [10] worked out at 0.09 µM.

In the case of `[O-][N+]12CCC[C@]3(O)CCCCCC[C@H]4CCN5CCC[C@@H](CCCCCC[C@@H](CC1)O[C@@H]32)[C@@H]5O4` (some centres not stated), the IC50 in test [11] came to 19.9 µM; in the test with BT-474 it was 15.2 µM.

Take `C/C=C(/C)C(=O)OC[C@H]1c2c(O)c(OC)c(C)c(OC(=O)/C=C/c3ccccc3)c2C[C@H]2[C@H]3C4=C(C[C@@H]([C@H](C#N)N12)N3C)C(=O)C(C)=C(OC)C4=O`: the IC50 in the test on NCI-H460 and in the test with NCI-H292 was 14.6 µM in each case.

With `CC[C@@H]1CCCC[C@]2(C[C@H]3CC[C@@]4(O)[C@@H](C(=O)OCCCCCCCCCCCCCCCCC(=O)N(CCCN)C[C@@H](O)CCN)[C@@]5(CCC[C@H](C)O5)N=C(N2)N34)O1`, the IC50 in the test with HCT-116 came to 4 µM.
